According to US11109593B2, “Isoxazolin-5-one derivative and herbicide containing same as active ingredient” (HOKKO CHEMICAL INDUSTRY CO., LTD., priority 2017, dated 2021):

These molecules were tested on Echinochloa crus-galli (assay: Test Example 1: herbicidal effect test by treatment of rice paddy soil (immediately after seeding)). Details: 120 g/10a active ingredient, dry weight vs untreated area, 14 days after treatment.
Type: in vivo
Outline: (§1)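 Applied at 120 g a.i./10 ares as diluted emulsion dropped into flooded (~3 cm) paddy soil pots right after sowing seeds 0–1 cm deep; greenhouse, two replicates. At day 14, dry weight of treated versus untreated plants gives % herbicidal rate.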

Question: Which “Herbicidal rate (%) Echinochloa crus-galli” value does the source give for `Cc1c(Cc2ccccc2NS(=O)(=O)C(F)(F)F)c(=O)on1CC(C)c1ccccc1` (stereo not drawn) [Compound 1-219] here?
Answer: 100%

Question: Which “Herbicidal rate (%) Echinochloa crus-galli” value does the source give for `CCC(=O)N(c1ccccc1Cc1c(C)n(CCSC)oc1=O)S(=O)(=O)C(F)(F)F` [Compound 1-320] here?
Answer: 90%

Question: How did the “Herbicidal rate (%) Echinochloa crus-galli” value turn out when `CCC(c1ccccc1)n1oc(=O)c(Cc2ccccc2NS(=O)(=O)C(F)(F)F)c1C` (stereo not drawn) [Compound 1-211] was run?
Answer: 90%

The molecules below were run on Scirpus juncoides in the same assay as above. Details: 120 g/10a active ingredient, dry weight vs untreated area, 14 days after treatment.
Type: in vivo
Outline: as §1

Question: Which “Herbicidal rate (%) Scirpus juncoides” value does the source give for `Cc1c(Cc2ccccc2NS(=O)(=O)C(F)(F)F)c(=O)on1CC(C)c1ccccc1` (stereo not drawn) [Compound 1-219] here?
Answer: 90%

Question: `CCC(=O)N(c1ccccc1Cc1c(C)n(CCSC)oc1=O)S(=O)(=O)C(F)(F)F` [Compound 1-320] was tested. Which “Herbicidal rate (%) Scirpus juncoides” value did it give?
Answer: 90%

Question: How did the “Herbicidal rate (%) Scirpus juncoides” value turn out when `CCC(c1ccccc1)n1oc(=O)c(Cc2ccccc2NS(=O)(=O)C(F)(F)F)c1C` (stereo not drawn) [Compound 1-211] was run?
Answer: 90%

These molecules were tested on broad leaf weeds (Lindernia pyxidaria and Monochoria vaginalis) in the same assay as above. Details: Lindernia pyxidaria, 120 g/10a active ingredient, dry weight vs untreated area, 14 days after treatment.
Type: in vivo
Outline: as §1

Question: How did the “Herbicidal rate (%) Lindernia pyxidaria” value turn out when `Cc1c(Cc2ccccc2NS(=O)(=O)C(F)(F)F)c(=O)on1CC(C)c1ccccc1` (stereo not drawn) [Compound 1-219] was run?
Answer: 90%

Question: For `CCC(=O)N(c1ccccc1Cc1c(C)n(CCSC)oc1=O)S(=O)(=O)C(F)(F)F` [Compound 1-320], which “Herbicidal rate (%) Lindernia pyxidaria” value is on record?
Answer: 90%

Question: With `CCC(c1ccccc1)n1oc(=O)c(Cc2ccccc2NS(=O)(=O)C(F)(F)F)c1C` (stereo not drawn) [Compound 1-211] as the molecule, how does the “Herbicidal rate (%) Lindernia pyxidaria” value read?
Answer: 90%

Same assay, conditions: Monochoria vaginalis, 120 g/10a active ingredient, dry weight vs untreated area, 14 days after treatment

Question: How did the “Herbicidal rate (%) Monochoria vaginalis” value turn out when `Cc1c(Cc2ccccc2NS(=O)(=O)C(F)(F)F)c(=O)on1CC(C)c1ccccc1` (stereo not drawn) [Compound 1-219] was run?
Answer: 80%

Question: How did the “Herbicidal rate (%) Monochoria vaginalis” value turn out when `CCC(=O)N(c1ccccc1Cc1c(C)n(CCSC)oc1=O)S(=O)(=O)C(F)(F)F` [Compound 1-320] was run?
Answer: 90%

Question: How did the “Herbicidal rate (%) Monochoria vaginalis” value turn out when `CCC(c1ccccc1)n1oc(=O)c(Cc2ccccc2NS(=O)(=O)C(F)(F)F)c1C` (stereo not drawn) [Compound 1-211] was run?
Answer: 90%

These molecules were tested on Echinochloa crus-galli (assay: Test Example 2: herbicidal effect test by treatment during growing period in paddy rice cultivation (seven days after seeding)). Details: 120 g/10a active ingredient, assessed 14 days after treatment, dry weight vs untreated area.
Type: in vivo
Outline: (§2)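 Post-emergence paddy water application: compounds were formulated as emulsions, diluted and dropped into flooded pots seven days after sowing at a rate equivalent to 120 g per 10 ares. Efficacy was taken as dry-weight reduction relative to untreated controls after 14 days.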

Question: Which “Herbicidal rate (%) Echinochloa crus-galli” value does the source give for `Cc1c(Cc2ccccc2NS(=O)(=O)C(F)(F)F)c(=O)on1CC(C)c1ccccc1` (stereo not drawn) [Compound 1-219] here?
Answer: 90%

Question: With `CCC(=O)N(c1ccccc1Cc1c(C)n(CCSC)oc1=O)S(=O)(=O)C(F)(F)F` [Compound 1-320] as the molecule, how does the “Herbicidal rate (%) Echinochloa crus-galli” value read?
Answer: 90%

Question: How did the “Herbicidal rate (%) Echinochloa crus-galli” value turn out when `CCC(c1ccccc1)n1oc(=O)c(Cc2ccccc2NS(=O)(=O)C(F)(F)F)c1C` (stereo not drawn) [Compound 1-211] was run?
Answer: 90%

Each molecule was assayed on Scirpus juncoides in the same assay as above. Details: 120 g/10a active ingredient, assessed 14 days after treatment, dry weight vs untreated area.
Type: in vivo
Outline: as §2

Question: How did the “Herbicidal rate (%) Scirpus juncoides” value turn out when `Cc1c(Cc2ccccc2NS(=O)(=O)C(F)(F)F)c(=O)on1CC(C)c1ccccc1` (stereo not drawn) [Compound 1-219] was run?
Answer: 90%

Question: With `CCC(=O)N(c1ccccc1Cc1c(C)n(CCSC)oc1=O)S(=O)(=O)C(F)(F)F` [Compound 1-320] as the molecule, how does the “Herbicidal rate (%) Scirpus juncoides” value read?
Answer: 90%

Question: For `CCC(c1ccccc1)n1oc(=O)c(Cc2ccccc2NS(=O)(=O)C(F)(F)F)c1C` (stereo not drawn) [Compound 1-211], which “Herbicidal rate (%) Scirpus juncoides” value is on record?
Answer: 90%

What follows are molecules tested on broad leaf weeds (Lindernia pyxidaria and Monochoria vaginalis) in the same assay as above. Details: Lindernia pyxidaria, 120 g/10a active ingredient, assessed 14 days after treatment, dry weight vs untreated area.
Type: in vivo
Outline: as §2

Question: `Cc1c(Cc2ccccc2NS(=O)(=O)C(F)(F)F)c(=O)on1CC(C)c1ccccc1` (stereo not drawn) [Compound 1-219] was tested. Which “Herbicidal rate (%) Lindernia pyxidaria” value did it give?
Answer: 40%

Question: `CCC(=O)N(c1ccccc1Cc1c(C)n(CCSC)oc1=O)S(=O)(=O)C(F)(F)F` [Compound 1-320] was tested. Which “Herbicidal rate (%) Lindernia pyxidaria” value did it give?
Answer: 90%

Question: `CCC(c1ccccc1)n1oc(=O)c(Cc2ccccc2NS(=O)(=O)C(F)(F)F)c1C` (stereo not drawn) [Compound 1-211] was tested. Which “Herbicidal rate (%) Lindernia pyxidaria” value did it give?
Answer: 60%

Same assay, conditions: Monochoria vaginalis, 120 g/10a active ingredient, assessed 14 days after treatment, dry weight vs untreated area

Question: How did the “Herbicidal rate (%) Monochoria vaginalis” value turn out when `Cc1c(Cc2ccccc2NS(=O)(=O)C(F)(F)F)c(=O)on1CC(C)c1ccccc1` (stereo not drawn) [Compound 1-219] was run?
Answer: 70%

Question: `CCC(=O)N(c1ccccc1Cc1c(C)n(CCSC)oc1=O)S(=O)(=O)C(F)(F)F` [Compound 1-320] was tested. Which “Herbicidal rate (%) Monochoria vaginalis” value did it give?
Answer: 90%

Question: `CCC(c1ccccc1)n1oc(=O)c(Cc2ccccc2NS(=O)(=O)C(F)(F)F)c1C` (stereo not drawn) [Compound 1-211] was tested. Which “Herbicidal rate (%) Monochoria vaginalis” value did it give?
Answer: 80%

These molecules were tested on Amaranthus viridis (assay: Test Example 3: herbicidal effect test by treatment of dry field farming soil (one day after seeding)). Details: 120 g/10a active ingredient, evaluated 14 days after treatment.
Type: in vivo
Outline: (§3)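 Dry-field alluvium pots; weed seeds incorporated in top 1 cm; soil spray of diluted emulsion 1 d after seeding, 120 g a.i./10 a in 100 L/10 a. Readout: % reduction of dry weight vs untreated, day 14, duplicates.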

Question: Which “herbicidal rate, Amaranthus viridis” value does the source give for `Cc1c(Cc2ccccc2NS(=O)(=O)C(F)(F)F)c(=O)on1CC(C)c1ccccc1` (stereo not drawn) [Compound 1-219] here?
Answer: 90%

Question: Which “herbicidal rate, Amaranthus viridis” value does the source give for `CCC(=O)N(c1ccccc1Cc1c(C)n(CCSC)oc1=O)S(=O)(=O)C(F)(F)F` [Compound 1-320] here?
Answer: 90%

Question: With `CCC(c1ccccc1)n1oc(=O)c(Cc2ccccc2NS(=O)(=O)C(F)(F)F)c1C` (stereo not drawn) [Compound 1-211] as the molecule, how does the “herbicidal rate, Amaranthus viridis” value read?
Answer: 0%

What follows are molecules tested on Chenopodium album in the same assay as above. Details: 120 g/10a active ingredient, evaluated 14 days after treatment.
Type: in vivo
Outline: as §3

Question: For `Cc1c(Cc2ccccc2NS(=O)(=O)C(F)(F)F)c(=O)on1CC(C)c1ccccc1` (stereo not drawn) [Compound 1-219], which “herbicidal rate, Chenopodium album” value is on record?
Answer: 40%

Question: For `CCC(=O)N(c1ccccc1Cc1c(C)n(CCSC)oc1=O)S(=O)(=O)C(F)(F)F` [Compound 1-320], which “herbicidal rate, Chenopodium album” value is on record?
Answer: 90%

Question: How did the “herbicidal rate, Chenopodium album” value turn out when `CCC(c1ccccc1)n1oc(=O)c(Cc2ccccc2NS(=O)(=O)C(F)(F)F)c1C` (stereo not drawn) [Compound 1-211] was run?
Answer: 0%

These molecules were tested on Echinochloa crus-galli in the same assay as above. Details: 120 g/10a active ingredient, evaluated 14 days after treatment.
Type: in vivo
Outline: as §3

Question: How did the “herbicidal rate, Echinochloa crus-galli” value turn out when `Cc1c(Cc2ccccc2NS(=O)(=O)C(F)(F)F)c(=O)on1CC(C)c1ccccc1` (stereo not drawn) [Compound 1-219] was run?
Answer: 90%

Question: How did the “herbicidal rate, Echinochloa crus-galli” value turn out when `CCC(=O)N(c1ccccc1Cc1c(C)n(CCSC)oc1=O)S(=O)(=O)C(F)(F)F` [Compound 1-320] was run?
Answer: 90%

Question: How did the “herbicidal rate, Echinochloa crus-galli” value turn out when `CCC(c1ccccc1)n1oc(=O)c(Cc2ccccc2NS(=O)(=O)C(F)(F)F)c1C` (stereo not drawn) [Compound 1-211] was run?
Answer: 90%

These molecules were tested on southern crabgrass in the same assay as above. Details: 120 g/10a active ingredient, evaluated 14 days after treatment.
Type: in vivo
Outline: as §3

Question: `Cc1c(Cc2ccccc2NS(=O)(=O)C(F)(F)F)c(=O)on1CC(C)c1ccccc1` (stereo not drawn) [Compound 1-219] was tested. Which “herbicidal rate, southern crabgrass” value did it give?
Answer: 80%

Question: How did the “herbicidal rate, southern crabgrass” value turn out when `CCC(=O)N(c1ccccc1Cc1c(C)n(CCSC)oc1=O)S(=O)(=O)C(F)(F)F` [Compound 1-320] was run?
Answer: 90%

Question: Which “herbicidal rate, southern crabgrass” value does the source give for `CCC(c1ccccc1)n1oc(=O)c(Cc2ccccc2NS(=O)(=O)C(F)(F)F)c1C` (stereo not drawn) [Compound 1-211] here?
Answer: 90%

These molecules were tested on Amaranthus viridis (assay: Test Example 4: herbicidal effect test by treatment of leave and stem in dry field farming (seven days after seeding)). Details: 120 g/10a active ingredient; emulsion sprayed seven days after seeding; evaluated 14 days after treatment.
Type: in vivo
Outline: (§4)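 Duplicate pots were scored 14 days post-spray by dry weight, herbicidal rate = {1 − treated/untreated average dry weight} × 100. The water-diluted emulsion, equivalent to 120 g active ingredient per 10 ares in 100 L, was applied seven days after sowing 20 seeds each into the upper 1 cm of alluvial soil.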

Question: How did the “herbicidal effect (herbicidal rate), Amaranthus viridis” value (shortened to “herbicidal effect … Amaranthus viridis”) turn out when `Cc1c(Cc2ccccc2NS(=O)(=O)C(F)(F)F)c(=O)on1CC(C)c1ccccc1` (stereo not drawn) [Compound 1-219] was run?
Answer: 40%

Question: Which “herbicidal effect … Amaranthus viridis” value does the source give for `CCC(=O)N(c1ccccc1Cc1c(C)n(CCSC)oc1=O)S(=O)(=O)C(F)(F)F` [Compound 1-320] here?
Answer: 40%

Question: For `CCC(c1ccccc1)n1oc(=O)c(Cc2ccccc2NS(=O)(=O)C(F)(F)F)c1C` (stereo not drawn) [Compound 1-211], which “herbicidal effect … Amaranthus viridis” value is on record?
Answer: 40%

What follows are molecules tested on Chenopodium album in the same assay as above. Details: 120 g/10a active ingredient; emulsion sprayed seven days after seeding; evaluated 14 days after treatment.
Type: in vivo
Outline: as §4

Question: For `Cc1c(Cc2ccccc2NS(=O)(=O)C(F)(F)F)c(=O)on1CC(C)c1ccccc1` (stereo not drawn) [Compound 1-219], which “herbicidal effect (herbicidal rate), Chenopodium album” value (from here on “herbicidal effect … Chenopodium album”) is on record?
Answer: 0%

Question: With `CCC(=O)N(c1ccccc1Cc1c(C)n(CCSC)oc1=O)S(=O)(=O)C(F)(F)F` [Compound 1-320] as the molecule, how does the “herbicidal effect … Chenopodium album” value read?
Answer: 40%

Question: With `CCC(c1ccccc1)n1oc(=O)c(Cc2ccccc2NS(=O)(=O)C(F)(F)F)c1C` (stereo not drawn) [Compound 1-211] as the molecule, how does the “herbicidal effect … Chenopodium album” value read?
Answer: 50%

What follows are molecules tested on Echinochloa crus-galli in the same assay as above. Details: 120 g/10a active ingredient; emulsion sprayed seven days after seeding; evaluated 14 days after treatment.
Type: in vivo
Outline: as §4

Question: With `Cc1c(Cc2ccccc2NS(=O)(=O)C(F)(F)F)c(=O)on1CC(C)c1ccccc1` (stereo not drawn) [Compound 1-219] as the molecule, how does the “herbicidal effect (herbicidal rate), Echinochloa crus-galli” value read?
Answer: 90%

Question: Which “herbicidal effect (herbicidal rate), Echinochloa crus-galli” value does the source give for `CCC(=O)N(c1ccccc1Cc1c(C)n(CCSC)oc1=O)S(=O)(=O)C(F)(F)F` [Compound 1-320] here?
Answer: 90%

Question: With `CCC(c1ccccc1)n1oc(=O)c(Cc2ccccc2NS(=O)(=O)C(F)(F)F)c1C` (stereo not drawn) [Compound 1-211] as the molecule, how does the “herbicidal effect (herbicidal rate), Echinochloa crus-galli” value read?
Answer: 90%

Each molecule was assayed on southern crabgrass in the same assay as above. Details: 120 g/10a active ingredient; emulsion sprayed seven days after seeding; evaluated 14 days after treatment.
Type: in vivo
Outline: as §4

Question: `Cc1c(Cc2ccccc2NS(=O)(=O)C(F)(F)F)c(=O)on1CC(C)c1ccccc1` (stereo not drawn) [Compound 1-219] was tested. Which “herbicidal effect (herbicidal rate), southern crabgrass” value (“herbicidal effect … southern crabgrass” below) did it give?
Answer: 60%

Question: How did the “herbicidal effect … southern crabgrass” value turn out when `CCC(=O)N(c1ccccc1Cc1c(C)n(CCSC)oc1=O)S(=O)(=O)C(F)(F)F` [Compound 1-320] was run?
Answer: 90%

Question: Which “herbicidal effect … southern crabgrass” value does the source give for `CCC(c1ccccc1)n1oc(=O)c(Cc2ccccc2NS(=O)(=O)C(F)(F)F)c1C` (stereo not drawn) [Compound 1-211] here?
Answer: 60%
